Read-outs that look alike come from different tables or passages of the source.
Legend:
Assay type in all cases: cell-based
[1] = system: Lactobacillus casei Lc-11; assay: Bacterial adhesion to human enterocyte-like Caco-2/TC-7 cell line, lyophilized Lc-11; details: 0.03 M, compared to the freeze-dried form
Text: (§1) An examination was made to see whether the effect of reactivating lyophilized probiotics is applicable to various strains in this experimental example. In this regard, lyophilized Bifidobacterium longum Bl-05 (Dupont; hereinafter referred to as “Bl-05”), Lactobacillus plantarum Lp-115 (Dupont; hereinafter referred to as “Lp-115”), Lactobacillus casei Lc-11 (Dupont; hereinafter referred to as “Lc-11”), and 7-strain mixture (400B) (Dupont; hereinafter referred to as “MIX”) were reactivated with L-lysine and then assayed for their ability to adhere to the human enterocyte-like Caco-2/TC-7 cell line.
(§2) Lyophilizates of the three strains and the 7-strain mix were adjusted to 2×10^8 CFU/g and mixed with 0.03 M L-lysine or 0.03 M proline. The pellets were washed three time with 1× PBS and resuspended in 10 ml MEM cell culture media supplemented with 20% FBS, 2 mM glutamine, and 1% non-essential amino acids. A bacterial adhesion assay was performed according to the method of Botes et al. (Arch. Microbiol, 190 (2008), pp. 573-584) with some modifications. […] To quantify the number of bacteria attached to Caco-2/TC-7 cells, the samples were serially diluted, incubated on MRS agar plates for 48 hours (37° C.), and then counted to measure relative adhesion ratio (counts of attached bacteria in test groups to counts of attached bacteria in the control). […]

[2] = system: Lactobacillus plantarum HAC03; assay: Zeta potential of lyophilized probiotics mixed with single ingredients (screening); details: 0.1 M ingredient, rehydrated 1 min, pH 2.5
Experimental: In this experimental example, Lactobacillus plantarum HAC03 (accession number: KCTC13242BP, the Korean Research Institute of Bioscience and Biotechnology) (hereinafter referred to as “HAC03”), which was described in Korean Patent Application No. 10-2017-0051574, was used as a probiotic strain.
Afterwards, 2 mL of pH 2.5 distilled water was added to each sample, the pH was re-adjusted using HCl 0.1 N, and 800 μl of the calibrated sample was loaded in DTS1080 cuvettes. The electrophoretic mobility was measured by the Zetaizer Nano ZEN 3600 (Malvern Panalytica, UK) after 2 minutes of equilibration and the Smoluchowski equation was used to convert the data into zetapotential values.
In this experiment, zeta potentials were measured at a pH of 2.5 in consideration of the highly acidic stomach environment, which is one of the initial hurdles that drastically reduce the survivability of the bacteria.

[3] = system: Lactobacillus plantarum Lp-115; assay: Bacterial adhesion to human enterocyte-like Caco-2/TC-7 cell line, lyophilized Lp-115; details: 0.03 M; L-lysine compared to the freeze-dried form, proline compared to L-lysine-reactivated
Text: as §1, §2

[4] = system: Lactobacillus plantarum HAC03; assay: in vitro Simulated Stomach Duodenum Passage (SSDP) probiotic survivability, lyophilized HAC03; details: for viability at 100000 µM: Lactiplantibacillus plantarum
Experimental: The HAC03 strain was mixed with each of the single compositions and 1 mL of distilled water for 1 min. The compositions were formulated to have a final concentration of 0.1 M when dissolved in 1 ml of distilled water. Thereafter, 9 mL of distilled water adjusted to have a pH of 2.5 was added to each mixture. The pH was readjusted back to 2.5 in case of an increased pH due to the nature of some of the single ingredients (in order to not affect the survival of the probiotics). After adjusting the pH to 2.5, the tubes were incubated at 37° C. for 1 hour to apply the low-pH gastric stress condition. […] During the gastrointestinal tract assay, the samples were taken immediately, 1 hour, and […] after the incubation (t=0, 1, and 2). The probiotic survivability of each sample after gastric stress and bile stress was calculated by counting viable colonies.

7-strain mixture (400B) = assay: Bacterial adhesion to human enterocyte-like Caco-2/TC-7 cell line, lyophilized 7-strain mixture; details: 0.03 M, compared to the freeze-dried form
Text: as §1, §2

[5] = system: Bifidobacterium longum Bl-05; assay: Bacterial adhesion to human enterocyte-like Caco-2/TC-7 cell line, lyophilized Bl-05; details: 0.03 M, compared to the freeze-dried form
Text: as §1, §2

Structure (SMILES)	bacterial cell adhesion to Caco-2/TC-7 (FIGS. 2A and 2E), in words [1]	zeta potential of lyophilized HAC03 mixed with the ingredient (sign, FIG. 1) [2]	bacterial cell adhesion to Caco-2/TC-7 (FIGS. 2C and 2G), in words [3]	viability at 100000 µM ([4]; HAC03, 1 h, pH 2.5, read-out: Stomach Survivability (%)) [%]	viability at 100000 µM ([4]; HAC03, 2 h, pH 6, read-out: Duodenum Survivability (%)) [%]	Stomach log CFU/mL ([4]; Table 1, 0.1 M ingredient, pH 2.5, 37° C., 1 hour) [log CFU/mL]	Duodenum log CFU/mL ([4]; Table 1, 0.1 M ingredient, then bile salts (10% ox gall) and pH 6.0 synthetic duodenum juice, 2 hours) [log CFU/mL]	intestinal survivability (acid resistance and bile resistance) in words ([4]; Table 1, compared to fresh bacteria / distilled water)	bacterial cell adhesion to Caco-2/TC-7 (FIGS. 2D and 2H), in words (7-strain mixture (400B))	bacterial cell adhesion to Caco-2/TC-7 (FIGS. 2B and 2F), in words [5]
Cl.NCCCC[C@H](N)C(=O)O [L-Lysine hydrochloride, L-lysine hydrochloride]	significantly increased bacterial cell adhesion	negative zeta potentials	significantly increased bacterial cell adhesion	85.2	48.4	7.87 ± 0.07	7.62 ± 0.09	increased in acid resistance and bile resistance	significantly increased bacterial cell adhesion	significantly increased bacterial cell adhesion
O=C(O)[C@@H]1CCCN1 [proline, reference compound]	remarkably lower in adhesion	positive zeta potentials	remarkably lower in adhesion	–	–	–	–	–	remarkably lower in adhesion	remarkably lower in adhesion

Reference: patent US20230346853A1, “Probiotic Lyophilizate Reactivation Composition for Improving Intestinal Survivability and Adhesion of Probiotics” (COSMAX NBT, INC., priority 2021, published 2023)
